# Numbered stars: 1 amine (or outer) side, 2 acyl side, 3 side chain; on linkers, the order of the positions; unused ones are H or OH. Bridge positions count the residues as written; N and C are the ends. Square brackets hold non-standard residues; d marks the D form. Peptide text beside a SMILES is read from it. * marks the point of attachment. Cinnamoyl(2-(1Z-pentenyl)) = CCC/C=C\c1ccccc1/C=C/C(=O)*; X3 = CC(=O)Oc1ccc(/C=C(\C(=O)[*:2])N(C)[*:1])cc1; X1 = CN(/C(=C/c1ccc(O)cc1)C(=O)[*:2])[*:1]; aThr = C[C@H](O)[C@H](N)C(=O)O; X2 = CCCCCc1ccccc1CCC(=O)*
# Columns and labels:
# [1] = molecular target: T1, specific [^3H] substance P binding to guinea pig lung membranes (Cavia porcellus, UniProt P30547); assay: ^3H-substance P binding to preparative membranes (guinea pig lung); conditions: ^3H-Substance P 1nM, 4°C, 30 minutes, read-out: IC50 (M), displacement of specific [^3H] substance P binding
# T1 construct: from tissue; host or cells: guinea pig trachea and lung, crude membrane fraction
# T1 sequence (P30547 whole entry): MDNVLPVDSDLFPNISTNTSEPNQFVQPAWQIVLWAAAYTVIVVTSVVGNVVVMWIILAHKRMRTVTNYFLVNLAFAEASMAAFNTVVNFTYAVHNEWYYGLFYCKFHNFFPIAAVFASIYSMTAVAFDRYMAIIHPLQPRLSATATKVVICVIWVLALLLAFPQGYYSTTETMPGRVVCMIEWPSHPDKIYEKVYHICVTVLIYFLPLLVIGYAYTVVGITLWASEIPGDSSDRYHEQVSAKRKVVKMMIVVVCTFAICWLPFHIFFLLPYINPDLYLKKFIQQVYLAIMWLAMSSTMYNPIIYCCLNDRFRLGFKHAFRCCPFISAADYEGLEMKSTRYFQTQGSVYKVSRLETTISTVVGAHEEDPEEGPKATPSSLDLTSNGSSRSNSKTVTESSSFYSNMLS
# Procedure: (a) Crude membrane preparation
# Male albino Hartley strain guinea pigs (600 g) were sacrificed by decapitation. The trachea and lungs were removed, and stored at -80°C until use. These tissues (150 g) were thawed and homogenized in 500 ml buffer (0.25 M sucrose, 50 mM Tris-HCℓ pH 7.5, 0.1 mM EDTA) with a compact mixer (Matsuden MJ-761). The tissue was homogenized with a Ultra-Disperser (Yamato MODEL LK-21) at a setting of maximum range for 10-s at 10-s intervals with cooling between homogenizations (total homogenization's time : 60 seconds). The homogenate was centrifuged (900 x g for 10 min.) to remove tissue clumps and the supernatant centrifuged at 14000 x g for 20 min. to yield pellets which were referred to as crude membrane fractions. The pellets were resuspended in Medium I, homogenized with a teflon homogenizer and centrifuged at 14000 x g for 20 min. The pellets were stored at -20°C.
# (b) ^3H-substance P binding to preparative membranes
# ^3H-Substance P (1nM, New England Nuclear) was incubated with 50 µℓ of the membrane preparation in medium I at 4°C for 30 minutes in a final volume of 250 µℓ. […] The radioactivity was counted in 3 ml of Aquazol-2 in Packard sintillation counter (Packard TRI-CARB 4530).
# [2] = Solubility in solvents (physical and chemical properties); type: physicochemical
# Procedure: The obtained product was triturated from diethyl ether to give triacetyl-WS-9326A (332 mg) as a colorless powder. Physical and chemical properties of the triacetyl-WS-9326A are as follows. […] (23)/(D) [formula] : -122° (C=1.0, MeOH) (6) Ultraviolet Absorption Spectrum : λ (MeOH)/(max) [formula] = 283 nm (ε=32,000) (7) Molecular Formula : C60H74N8O16 (8) Elemental Analysis : […]
IC50 [1] [M],Solubility ([2]; chloroform),Solubility ([2]; diethyl ether),Solubility ([2]; dimethyl sulfoxide),Solubility ([2]; methanol),Solubility ([2]; n-hexane),Structure (SMILES)
4.2e-07,,,,,,CCCCCc1ccccc1CCC(=O)N[C@@H]1C(=O)N(C)/C(=C/c2ccc(O)cc2)C(=O)N[C@@H](CC(C)C)C(=O)N[C@H](Cc2ccccc2)C(=O)N[C@@H]([C@H](C)O)C(=O)N[C@@H](CC(N)=O)C(=O)N[C@@H](CO)C(=O)O[C@@H]1C [Tetrahydro-WS-9326A] (X2-T[X1]L[dF][aThr]NS; ester 1-C)
,Sparingly Soluble,Sparingly Soluble,Soluble,Soluble,Insoluble,CCC/C=C\c1ccccc1/C=C/C(=O)N[C@@H]1C(=O)N(C)/C(=C/c2ccc(OC(C)=O)cc2)C(=O)N[C@@H](CC(C)C)C(=O)N[C@H](Cc2ccccc2)C(=O)N[C@@H]([C@H](C)OC(C)=O)C(=O)N[C@@H](CC(N)=O)C(=O)N[C@@H](COC(C)=O)C(=O)O[C@@H]1C [triacetyl-WS-9326A] ({Cinnamoyl(2-(1Z-pentenyl))}-T[X3]L[dF][aThr](Ac)NS(Ac); ester 1-C)
